# Entries after “also recorded” stand apart in the source; their conditions may differ.
# What was measured:
# [1] = First cadaver skin flux study (radiolabelled 25HC3S, diffusion cells, % dose recovered); format: in vitro ADME; details: from comparison of formulations in cadaver skin study
# Experimental: The formulations shown in the below Table 22 were made. Each of the below formulations containing drug included 1 wt % non-radiolabelled 25HC3S since the maximum drug loading achieved in Carbopol based creams or gels was 1 wt %. In positive control C1, 20 wt % DMSO was included in EtOH to achieve 1 wt % drug loading.
# The procedure for mixing radiolabelled C^14-25HC3S with each formulation was as follows. Formulation (1 mL of each) was placed into 1 mL vials. To each vial was added 5 μL EtOH containing hot material ([…] radiolabelled 25HC3S). The mixture was mixed using a small plunger for 4 to 5 minutes until uniform.
# The above formulations were tested on cadaver skin as follows. Dermatomed cadaver skin was obtained from thigh and abdominal areas. A total of 4 donor skin samples (4 separate experiments) were used in the study. Skin samples were placed on diffusion cells (see below) at least 2 hours prior to dosing. Skin sample integrity was examined by measuring […] water loss (TEWL).
# The diffusion cells had 1 cm^2 surface area. Each sample at each testing point had 2-3 replicates.
# The dose was 10-25 μL of formulation each containing 0.2-0.5 μCi radioactivity per diffusion cell.
# The receptor fluid was 6% PEG 400 in PBS. The receptor fluid flow rate was continuous flow at 4.7 mL/hr.
# For dose application, the net amount was determined by weight difference before and after dosing application.
# The total skin exposure time was 24 hours. After 8 hours of skin exposure, skin surface dose residues were removed by 5% soap-water washing as follows: (1) two times with small cotton balls wetted with 5% clear Ivory® liquid soap (Proctor and Gamble); and (2) two times with cotton balls wetted with distilled de-ionized water to recover the residual drug content, and a final drying with a dry cotton ball. After 16 hours of additional skin exposure (after skin washing), the experiment was finished.
# The dosed skin was first tape stripped 10 times followed with heat separation of viable epidermis and dermis. Receptor fluid samples were collected at 30 min, 1 hour, 2 hour, and every 2 hours until the end of the experiment. All samples were counted for radioactivity
# chronic dermatitis = assay: Case report: topical therapy of chronic dermatitis following poison ivy attack; format: in vivo, Human; details: one person, topical once every three days, three applications
# Experimental: A case report: A volunteer had been suffering from chronic dermatitis with intense itching following a poison ivy attack two years earlier. The affected area was externally treated with 0.5 ml of 5 mg/ml of 25HC3S sodium salt in a body lotion (Cococare®, Vitamin E Cream) once every three days for a total of three applications.
Compound,trend as permeation enhancer (PE) [1],"itching, redness and swelling (chronic dermatitis; 0.5 ml of 5 mg/ml in body lotion (Cococare Vitamin E Cream))",skin recovery (chronic dermatitis; 0.5 ml of 5 mg/ml in body lotion)
PEG 400,poor permeation enhancer,–,–
"CCCCCCCCCCCCOC(=O)C(C)O (stereo not drawn) [LL, Lauryl lactate]",may be more effective than PG,–,–
"CC(O)CO (stereo not drawn) [PG, propylene glycol]",may be about the same as OA; also recorded: good permeation enhancer,–,–
"CCO [EtOH, ethanol]",high PE; also recorded: great permeation enhancer,–,–
"C[C@H](CCCC(C)(C)O)[C@H]1CC[C@H]2[C@@H]3CC=C4CC(OS(=O)(=O)[O-])CC[C@]4(C)[C@H]3CC[C@]12C.[Na+] (stereo partly drawn) [25HC3S sodium salt, 5-cholesten-3, 25-diol, 3-sulfate]",–,"Within two days, the itching subsided, and redness and swelling decreased",almost completely recovered in 10 days

# — patent US20190374554A1, “USE OF OXYGENATED CHOLESTEROL SULFATES (OCS) TO TREAT INFLAMMATORY SKIN DISEASE AND SKIN LESIONS” (Virginia Commonwealth University, priority 2016, published 2019)
